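Exposure lasted 48 hours, with cells grown in 96-well plates and compounds tested at five concentrations. GI50 = concentration required for 50% inhibition of growth. TGI: total growth inhibition.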
Key:
Assay in all cases: NCI tumour cell line growth inhibition, 48 h
[1] = system: SNB-75 CNS
[2] = system: SF-295 CNS
[3] = system: EKVX NSCLC
[4] = system: CCRF-CEM leukemia
[5] = system: DU-145 prostate
[6] = system: NCI-H460 lung
[7] = system: A498 renal
[8] = system: BT-549 breast
[9] = system: NCI/ADR-RES ovarian
[10] = system: SW-620 colon
[11] = system: SK-MEL-2 melanoma
[12] = system: ACHN renal
[13] = system: SN12C renal
[14] = system: HT29 colon
[15] = system: HOP-62 NSCLC
[16] = system: OVCAR-3 ovarian
[17] = system: HCT-116 colon
[18] = system: NCI-H522 lung
[19] = system: SNB-19 CNS
[20] = system: HCC-2998 colon
[21] = system: HL-60(TB) leukemia
[22] = system: KM12 colon
[23] = system: SR leukemia
[24] = system: HS 578T breast
[25] = system: PC-3 prostate
[26] = system: SK-OV-3 ovarian
[27] = system: NCI-H226 lung
[28] = system: CAKI-1 renal
[29] = system: MCF7 breast
[30] = system: UO-31 renal
[31] = system: 786-0 renal
[32] = system: MALME-3M melanoma
[33] = system: SF-268 CNS
[34] = system: HCT-15 colon
[35] = system: OVCAR-8 ovarian
[36] = system: K-562 leukemia
[37] = system: UACC-257 melanoma
[38] = system: OVCAR-4 ovarian
[39] = system: RXF 393 renal
[40] = system: RPMI-8226 leukemia
[41] = system: OVCAR-5 ovarian
[42] = system: SK-MEL-28 melanoma
[43] = system: UACC-62 melanoma
[44] = system: SF-539 CNS
[45] = system: T-47D breast
[46] = system: IGROV1 ovarian
[47] = system: U251 CNS
[48] = system: MDA-MB-231 breast
[49] = system: COLO 205 colon
[50] = system: LOX IMVI melanoma
[51] = system: HOP-92 NSCLC
[52] = system: M14 melanoma
[53] = system: MOLT-4 leukemia
[54] = system: MDA-MB-435
[55] = system: SK-MEL-5 melanoma
[56] = system: TK-10 renal
[57] = system: A549 NSCLC

Q: For `CN(C)CCCOc1c2ccccc2nc2c1oc1ccc(Cl)cc12`, which GI50 [1] is on record?
A: Its GI50 is 2.6 µM.

Q: And the TGI [1]?
A: The TGI was 11.8 µM.

Q: What about the GI50 [2] of the same compound?
A: The GI50 was 3.82 µM.

Q: And the TGI [2]?
A: The TGI was 15 µM.

Q: And the GI50 [3]?
A: Its GI50 is 3.68 µM.

Q: What about the TGI [3] of the same compound?
A: Its TGI is 14.7 µM.

Q: What about the GI50 [4] of the same compound?
A: The GI50 was 4.12 µM.

Q: What about the TGI [4] of the same compound?
A: The TGI was 46.1 µM.

Q: And the GI50 [5]?
A: Its GI50 is 4.14 µM.

Q: What about the TGI [5] of the same compound?
A: The TGI was 14.5 µM.

Q: What about the GI50 [6] of the same compound?
A: The GI50 was 3.06 µM.

Q: What about the TGI [6] of the same compound?
A: Its TGI is 11.6 µM.

Q: And the GI50 [7]?
A: Its GI50 is 10.4 µM.

Q: And the TGI [7]?
A: The TGI was 23.6 µM.

Q: What about the GI50 [8] of the same compound?
A: The GI50 was 5.17 µM.

Q: What about the TGI [8] of the same compound?
A: Its TGI is 18.5 µM.

Q: And the GI50 [9]?
A: Its GI50 is 1.94 µM.

Q: And the TGI [9]?
A: Its TGI is 10.2 µM.

Q: What about the GI50 [10] of the same compound?
A: Its GI50 is 1.92 µM.

Q: And the TGI [10]?
A: The TGI was 10.1 µM.

Q: What about the GI50 [11] of the same compound?
A: The GI50 was 6.35 µM.

Q: And the TGI [11]?
A: Its TGI is 18.9 µM.

Q: And the GI50 [12]?
A: Its GI50 is 2.2 µM.

Q: And the TGI [12]?
A: The TGI was 11.5 µM.

Q: What about the GI50 [13] of the same compound?
A: Its GI50 is 3.01 µM.

Q: And the TGI [13]?
A: The TGI was 14.1 µM.

Q: What about the GI50 [14] of the same compound?
A: Its GI50 is 2.56 µM.

Q: What about the TGI [14] of the same compound?
A: The TGI was 11.7 µM.

Q: What about the GI50 [15] of the same compound?
A: The GI50 was 3.66 µM.

Q: What about the TGI [15] of the same compound?
A: The TGI was 15.5 µM.

Q: And the GI50 [16]?
A: The GI50 was 5.2 µM.

Q: What about the TGI [16] of the same compound?
A: The TGI was 17.5 µM.

Q: And the GI50 [17]?
A: Its GI50 is 1.87 µM.

Q: And the TGI [17]?
A: The TGI was 13 µM.

Q: What about the GI50 [18] of the same compound?
A: The GI50 was 2.76 µM.

Q: What about the TGI [18] of the same compound?
A: Its TGI is 11.1 µM.

Q: What about the GI50 [19] of the same compound?
A: Its GI50 is 3.93 µM.

Q: And the TGI [19]?
A: Its TGI is 16.3 µM.

Q: And the GI50 [20]?
A: Its GI50 is 3.12 µM.

Q: What about the TGI [20] of the same compound?
A: Its TGI is 13.9 µM.

Q: And the GI50 [21]?
A: The GI50 was 3.13 µM.

Q: What about the TGI [21] of the same compound?
A: Its TGI is 14.1 µM.

Q: And the GI50 [22]?
A: Its GI50 is 4.18 µM.

Q: And the TGI [22]?
A: Its TGI is 18.5 µM.

Q: And the GI50 [23]?
A: The GI50 was 3.02 µM.

Q: What about the TGI [23] of the same compound?
A: The TGI was 12.2 µM.

Q: And the GI50 [24]?
A: Its GI50 is 3.76 µM.

Q: And the TGI [24]?
A: Its TGI is 19.7 µM.

Q: And the GI50 [25]?
A: Its GI50 is 3.16 µM.

Q: What about the TGI [25] of the same compound?
A: The TGI was 12.3 µM.

Q: And the GI50 [26]?
A: Its GI50 is 4.6 µM.

Q: And the TGI [26]?
A: Its TGI is 16.7 µM.

Q: What about the GI50 [27] of the same compound?
A: The GI50 was 3.02 µM.

Q: And the TGI [27]?
A: The TGI was 9.95 µM.

Q: What about the GI50 [28] of the same compound?
A: Its GI50 is 2.63 µM.

Q: What about the TGI [28] of the same compound?
A: Its TGI is 11.3 µM.

Q: What about the GI50 [29] of the same compound?
A: Its GI50 is 2.88 µM.

Q: What about the TGI [29] of the same compound?
A: Its TGI is 10.3 µM.

Q: And the GI50 [30]?
A: Its GI50 is 2.32 µM.

Q: What about the TGI [30] of the same compound?
A: The TGI was 12.1 µM.

Q: What about the GI50 [31] of the same compound?
A: The GI50 was 3.32 µM.

Q: And the TGI [31]?
A: Its TGI is 15.3 µM.

Q: What about the GI50 [32] of the same compound?
A: The GI50 was 2.77 µM.

Q: What about the TGI [32] of the same compound?
A: The TGI was 9.64 µM.

Q: And the GI50 [33]?
A: Its GI50 is 3.8 µM.

Q: What about the TGI [33] of the same compound?
A: Its TGI is 17 µM.

Q: And the GI50 [34]?
A: Its GI50 is 3.07 µM.

Q: And the TGI [34]?
A: The TGI was 12.5 µM.

Q: What about the GI50 [35] of the same compound?
A: Its GI50 is 3.28 µM.

Q: What about the TGI [35] of the same compound?
A: The TGI was 14.2 µM.

Q: And the GI50 [36]?
A: Its GI50 is 2.79 µM.

Q: And the TGI [36]?
A: Its TGI is > 100 µM.

Q: What about the GI50 [37] of the same compound?
A: Its GI50 is 3.44 µM.

Q: And the TGI [37]?
A: Its TGI is 13.3 µM.

Q: What about the GI50 [38] of the same compound?
A: Its GI50 is 2.42 µM.

Q: What about the TGI [38] of the same compound?
A: The TGI was 7.45 µM.

Q: And the GI50 [39]?
A: The GI50 was 2.58 µM.

Q: What about the TGI [39] of the same compound?
A: Its TGI is 8.7 µM.

Q: What about the GI50 [40] of the same compound?
A: The GI50 was 2.7 µM.

Q: What about the TGI [40] of the same compound?
A: Its TGI is 7.56 µM.

Q: What about the GI50 [41] of the same compound?
A: Its GI50 is 4.04 µM.

Q: What about the TGI [41] of the same compound?
A: Its TGI is 15.9 µM.

Q: What about the GI50 [42] of the same compound?
A: Its GI50 is 4.56 µM.

Q: What about the TGI [42] of the same compound?
A: The TGI was 16.5 µM.

Q: And the GI50 [43]?
A: The GI50 was 5.11 µM.

Q: And the TGI [43]?
A: Its TGI is 19.1 µM.

Q: What about the GI50 [44] of the same compound?
A: Its GI50 is 3.24 µM.

Q: And the TGI [44]?
A: The TGI was 13 µM.

Q: What about the GI50 [45] of the same compound?
A: The GI50 was 4.92 µM.

Q: And the TGI [45]?
A: Its TGI is 20.7 µM.

Q: And the GI50 [46]?
A: Its GI50 is 3.61 µM.

Q: And the TGI [46]?
A: The TGI was 13 µM.

Q: And the GI50 [47]?
A: The GI50 was 3.36 µM.

Q: What about the TGI [47] of the same compound?
A: The TGI was 13.7 µM.

Q: What about the GI50 [48] of the same compound?
A: Its GI50 is 2.64 µM.

Q: And the TGI [48]?
A: Its TGI is 10.5 µM.

Q: What about the GI50 [49] of the same compound?
A: Its GI50 is 2.49 µM.

Q: And the TGI [49]?
A: Its TGI is 9.76 µM.

Q: And the GI50 [50]?
A: The GI50 was 1.48 µM.

Q: And the TGI [50]?
A: The TGI was 3.08 µM.

Q: What about the GI50 [51] of the same compound?
A: The GI50 was 1.75 µM.

Q: What about the TGI [51] of the same compound?
A: The TGI was 8.01 µM.

Q: And the GI50 [52]?
A: The GI50 was 3.04 µM.

Q: What about the TGI [52] of the same compound?
A: Its TGI is 11 µM.

Q: And the GI50 [53]?
A: Its GI50 is 3.19 µM.

Q: And the TGI [53]?
A: The TGI was 14 µM.

Q: What about the GI50 [54] of the same compound?
A: Its GI50 is 3.44 µM.

Q: And the TGI [54]?
A: Its TGI is 12.7 µM.

Q: And the GI50 [55]?
A: Its GI50 is 9.28 µM.

Q: What about the TGI [55] of the same compound?
A: The TGI was 21.3 µM.

Q: What about the GI50 [56] of the same compound?
A: The GI50 was 5.16 µM.

Q: And the TGI [56]?
A: The TGI was 17.1 µM.

Q: And the GI50 [57]?
A: Its GI50 is 2.8 µM.

Q: And the TGI [57]?
A: Its TGI is 10.6 µM.

From PubChem BioAssay (NCI)
